These results are taken from patent US20220249525A1, “Fatty Acid Compounds for Prevention and Treatment of Neurodegenerative Disorders” (T OMEGA AS, priority 2019, published 2022).

The subject of series [1] is SH-SY5Y cells. Put plainly: GC-MS analysis of TTA in cell medium and SH-SY5Y cells. The series is classed as in vitro ADME. As for the experimental part: The GC-MS analysis was performed on treated SH-SY5Y cells and its medium prior and after treatment of TTA complexed with FBS. The technical work and analysis were performed by Pavol Bohov.
Total medium and cellular FA composition were analyzed by […] after preparation of FA methyl esters from total lipids by heating with a 1:1 mixture of methanol and toluene at 90° C. for 1 hour using sulfuric acid as a catalyst. Gas chromatograph Trace GC Ultra (Finnigan, USA) was equipped with a programmable temperature vaporization injector, flame-ionization detector, AS 2000 autosampler and with a fused silica capillary column coated with dimethylpolysiloxane stationary phase (J & W Scientific, USA). Hydrogen was used as a carrier gas. The column temperature was programmed from 110° C. to 310° C. with a gradient of 2.5° C./min.
The GC signal was acquired and evaluated with Chromeleon software version 6.80 (Dionex, USA). Peaks were identified by means of known FA standards and by means of mass spectra, obtained by GC-MS analysis (GCQ MS Detector, Finnigan, USA) on the same column.
The quantification of the FAs was based on the areas of the chromatographic peaks which were measured electronically. Subsequently, the areas were converted to weight units based on the known amount of the internal standard C21:0 which had been added to the sample. The response of the analytical procedure was determined with a mixture of pure standards (Sigma-Aldrich, USA; Supelco, USA; Larodan Fine Chemicals, Sweden).

Series [2] is described as follows: Mildronate-induced fatty liver, liver triacylglycerol. Particulars: C57BL/6 mice; Mildronate 550 mg/kg body weight in low-fat diet; 3 weeks. It counts as in vivo. Here is the method:
C57BL/6 mice were divided in 4 groups of 10 mice and fed a control low-fat diet, low-fat diets with TTA (720 mg/kg body weight), Mildronate (550 mg/kg body weight) or a combination of these two treatments for 3 weeks (n=10). At sacrifice, liver samples were collected, lipids were extracted, and triacylglycerol (TAG) measured on the Hitachi 917 system (Roche Diagnostics, GmbH, Mannheim, Germany) using a kit from Roche Diagnostics.

Series [3] has as its system HeLaNRF1/c4 reporter cells. Put plainly: Mitochondria respiration assay (OCR) in HeLaNRF1/c4 reporter cells after 5 days. The series is classed as cell-based. As for the experimental part: Mitochondria function was analyzed by measuring oxygen consumption rate (OCR) by extracellular flux analysis in a Seahorse XFe96 instrument (Agilent Seahorse XF Technologies). The measurements were performed in DADA basic media without phenol red, supplemented with L-glutamine (2 mM), pyruvate (2 mM), and sodium chloride, NaCl (32 mM) (Sigma-Aldrich). Respiratory rates were measured following sequential additions of glucose (10 mM), oligomycin, carbonyl cyanide m-chlorophenyl hydrazine (CCCP) and a mixture of rotenone (1 μM) and antimycin A (1 μM). Before carrying out the measurements for each cell model, optimizations were done for; cell number, CCCP, and oligomycin concentrations. […] The OCR measured initially (before any additions) represented the rate ‘basal respiration.’ The addition of ATP synthase inhibitor oligomycin provided oxygen consumption independent of ATP production (‘leak activity’). Maximal respiration (also referred to as ‘respiratory capacity’) was measured upon addition of the uncoupler CCCP. […] To evaluate the effects of the different treatments, the respiratory rates from compound-treated wells were normalized to protein content, and calculated as percentage of the average respiratory rate of the DMSO-treated control wells. […]

Series [4] has as its system HeLaNRF1/c4 reporter cells. Nature of the series: Resazurin conversion assay in HeLaNRF1/c4 reporter cells. It counts as cell-based. As to conditions: test compounds 30 μM and 60 μM, long treatment. Here is the method:
(§1) Non-small cell lung cancer cells, HCC827 (ATCC) were cultured in RPMI-1640 Glutamax medium (Sigma-Aldrich St. Louis, Mo., USA), under conventional culture conditions. Media was supplemented with 10% Fetal Bovine Serum (FBS), 1% glutamine and 1% streptomycin/penicillin (Sigma-Aldrich). HeLaNRF1/c4 reporter cells were cultured in Dulbecco's Modified Eagle's Medium (DMEM) supplemented with 10% FBS, 2 mM L-Glutamine, 100 u/ml penicillin/streptomycin (Sigma-Aldrich,). Incubation was done at 37° C. in 5% CO2.
Cell viability/proliferation was determined by the resazurin conversion assay. A total of 4000 cells were seeded in each of the 96-well plates in 100 μl of medium. After 3 hours of incubation, 100 μl of fresh medium with respective concentration of the desired compound or controls were added. Resazurin solution (Sigma-Aldrich) was added (10%, v/v in PBS) after 1 or 3 day treatment, followed by 3 hour incubation at 37° C. and 5% CO2. Resazurin fluorescence (excitation, 540 nm; emission, 590 nm) was measured and measurements were corrected for background signals. […] Relative viability was calculated from percent fluorescence relative to DMSO-treated control wells.
In order to investigate if some of the compounds induce metabolic adaptations involving mitochondrial biogenesis, we employed the HeLaNRF1/c4 reporter cells in which activation of the transcription factor NRF1 triggers expression of GFP. Since adaptations of mitochondrial biogenesis are known to require some days to develop, we used a relatively low dosage (30 μM and 60 μM) of the compounds, to allow longer treatment period compared to the previous short term experiments.
(In general: Alamar Blue is a resazurin reagent that responds to reducing activity.)

Series [5] has as its system HCC827 cells. Nature of the series: Mitochondria respiration assay (OCR, extracellular flux) in HCC827 cells. The series is classed as cell-based. As to conditions: compared to control. Here is the method: as §1
Mitochondria function was analyzed by measuring oxygen consumption rate (OCR) by extracellular flux analysis in a Seahorse XFe96 instrument (Agilent Seahorse XF Technologies). The measurements were performed in DADA basic media without phenol red, supplemented with L-glutamine (2 mM), pyruvate (2 mM), and sodium chloride, NaCl (32 mM) (Sigma-Aldrich). Respiratory rates were measured following sequential additions of glucose (10 mM), oligomycin, carbonyl cyanide m-chlorophenyl hydrazine (CCCP) and a mixture of rotenone (1 μM) and antimycin A (1 μM). Before carrying out the measurements for each cell model, optimizations were done for; cell number, CCCP, and oligomycin concentrations. For the HCC 827 cell model optimal conditions were; 30,000 cells/well, 0.5 μM CCCP, and 3 μM Oligomycin; and in HeLaNRF1/c4 reporter cell model; 20,000 cells/well, 1 μM CCCP and 3 μM Oligomycin. The OCR measured initially (before any additions) represented the rate ‘basal respiration.’ The addition of ATP synthase inhibitor oligomycin provided oxygen consumption independent of ATP production (‘leak activity’). Maximal respiration (also referred to as ‘respiratory capacity’) was measured upon addition of the uncoupler CCCP. […] After the extracellular flux analysis the analysis plates were washed with Phosphate Buffered Saline (PBS) and frozen at −80° C. The BCA assay (Pierce BCA protein assay kit, Thermo Fisher Scientific, Waltham, Mass. USA) was employed to measure the protein content in the wells. To evaluate the effects of the different treatments, the respiratory rates from compound-treated wells were normalized to protein content, and calculated as percentage of the average respiratory rate of the DMSO-treated control wells. All treatments were performed with 6-8 replicate wells.

Series [6] concerns HeLaNRF1/c4 reporter cells. Nature of the series: NRF1-regulated mitochondrial biogenesis, GFP reporter by flow cytometry. It counts as cell-based. As to conditions: 5 days; AICAR 250 μM or 500 μM, resveratrol 25 uM, test compounds 30 μM and 60 μM. As for the experimental part:
The HeLaNRF1/c4 reporter cells were employed to investigate effects of the modified fatty acids on NRF1-regulated mitochondrial biogenesis. The cells (250,000) were seeded in T75 flasks and incubated for 3 hours to allow attachment. The compounds were dissolved in DMSO and diluted in culture medium to provide the final concentration. DMSO at a concentration equivalent to the highest compound concentration was added to control cultures. Resveratrol and AICAR were used as positive controls. Resveratrol has not previously been tested in this reporter model, but we found it relevant to include it for purposes of experimental and mechanistic comparisons. After 3 days of treatment the media was replaced with fresh media containing the corresponding compound. On day 5, the cells were harvested and the cultures split into three fractions: One fraction was used for detection of mitoGFP expression by flow cytometry, to assess effects on NRF-1 regulated mitochondrial biogenesis. Flow cytometry analysis was performed as previously described. Another fraction was used for extraction of RNA and subsequent gene expression analysis using quantitative PCR (see below). The last fraction was employed to investigate effects on mitochondrial respiratory function by extracellular flux analysis (described above). The experiment was replicated three times. […]

Series [7] deals with HeLaNRF1/c4 reporter cells. Put plainly: Gene expression (qPCR) in HeLaNRF1/c4 reporter cells. It counts as cell-based. As to conditions: long-term treatment, vs control. As for the experimental part:
The HeLaNRF1/c4 reporter cells were employed to investigate effects of the modified fatty acids on NRF1-regulated mitochondrial biogenesis. The cells (250,000) were seeded in T75 flasks and incubated for 3 hours to allow attachment. The compounds were dissolved in DMSO and diluted in culture medium to provide the final concentration. DMSO at a concentration equivalent to the highest compound concentration was added to control cultures. Resveratrol and AICAR were used as positive controls. Resveratrol has not previously been tested in this reporter model, but we found it relevant to include it for purposes of experimental and mechanistic comparisons. After 3 days of treatment the media was replaced with fresh media containing the corresponding compound. On day 5, the cells were harvested and the cultures split into three fractions: One fraction was used for detection of mitoGFP expression by flow cytometry, to assess effects on NRF-1 regulated mitochondrial biogenesis. Flow cytometry analysis was performed as previously described. Another fraction was used for extraction of RNA and subsequent gene expression analysis using quantitative PCR (see below). The last fraction was employed to investigate effects on mitochondrial respiratory function by extracellular flux analysis (described above). The experiment was replicated three times.
Total RNA was extracted from harvested cells (RNAeasy kit Qiagen, Hilden, Germany). The RNA content was quantified on Nanodrop 1000 Spectrophotometer (Thermo Scientific). From 1 μg total RNA, cDNA was synthesized using High-Capacity Reverse Transcription Kit (Applied Biosystems, Carlsbad, Calif., US). Gene quantification was done using TaqMan probes for gene expression assays (Applied Biosystems). Probes used were: PGC1α (PPARG coactivator 1α), Hs00173304_m1; HIF1α (hypoxia inducible factor 1α), Hs00153153_m1; PDK1 (pyruvate dehydrogenase kinase 1), Hs01561847_m1; PDK4, (pyruvate dehydrogenase kinase 4), Hs01037712_m1; SIRT4 (sirtuin 4) Hs01015516_g1; ACOX1 (acyl-CoA oxidase 1) Hs01074241_m1; as reference genes, we used; Eukaryotic 18S rRNA Hs99999901_s1; actin beta Hs99999903_m1. Fold change was calculated as geometric mean of ΔΔCt of the two reference genes.
(In qPCR the cycle at which signal appears reflects the starting amount.)

[8] abbreviates: inside SH-SY5Y cells after 24 hours.

Molecules are shown by their SMILES.

Take `CCCCCCCC=CCCCCCSCC(=O)O` [TTA: 1n-8]: the “Medium 24 h, weight percent of total FA” value in series [1] (cell medium after 24 hours) is “(0.18%)”. For the same compound, the “Medium 24 h, concentration” value in series [1] (cell medium after 24 hours incubation with SH-SY5Y cells) was determined as 0.53 µM. In series [1] (setting [8]), the “Cells 24 h, concentration” value was determined as 0.017 µM and the “Cells 24 h, weight percent of total FA” value is reported as “(0.19%)”.

Consider `C[N+](C)(C)NCCC(=O)[O-]` [Mildronate, 3-(2,2,2-trimethylhydrazinium)propionate], for which the “increase in liver triacylglycerol (TAG)” value in series [2] turned out to be 7 fold.

As to `NC(=O)c1ncn([C@@H]2O[C@H](CO)[C@@H](O)[C@H]2O)c1N` [AICAR, 5-aminoimidazole-4-carboxamide-1-β-D-ribofuranoside, reference compound], in series [3], the basal respiratory rate entry is listed as “without affecting the basal respiratory rate” and the “uncoupled respiratory capacity (CCCP)” value is recorded as “only increased in the AICAR-treated cells”. Besides, the resazurin conversion entry in series [4] is “moderate reduction”. Moreover, the “basal respiratory rate (OCR)” value in series [5] is reported as “little or no effect”. In addition, the “GFP intensity (NRF1 reporter)” value in series [6] is given as “significant increase”. In series [7], the PGC1α expression result is given as “reduced PGC1α expression”.
